From patent US20230083973A1, “SUBSTITUTED CYCLOPROPYL-2,2'-BIP[…], ANALOGUES THEREOF, AND METHODS USING SAME” (priority 2019, published 2023)
Like-named read-outs stand apart in the source and are kept apart here.

System: HBsAg
Assay: HBsAg assay: inhibition of HBsAg in HepG2.2.15 cells (chemiluminescence immunoassay of supernatant)
Assay type: cell-based, hepatitis B virus
Details: HBsAg in supernatant at day 6 after exposure to compound, 0.5% DMSO
How it was run: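 HepG2.2.15 cells treated with serially diluted compounds (0.5% DMSO), medium and compound refreshed after 2–3 days, supernatant harvested at day 6. Secreted HBsAg measured by chemiluminescence immunoassay; EC50 from dose-response curves, with parallel CellTiter-Glo viability at 5,000 cells/well.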

[1] = Hepatitis B virus, HepG2.2.15, 144 h, read-out: sAg EC50, HepG2.2.15 cells
[2] = read-out: sAg EC50, HepG2.2.15 cells

SMILES | EC50 [1] [nM] | EC50 [2] [nM]
O[C@@H]1CCN(c2cc(C3CC3c3cnc(-c4ncccn4)nc3)cc(F)c2F)C1 (single isomer, unassigned) [Example 104] | 78 | 
COc1cc(C2CC2c2cnc(-c3ncccn3)nc2)cc(OC)c1Cl (single isomer, unassigned) [Example 98, trans-5-(2-(4-Chloro-3,5-dimethoxyphenyl)cyclopropyl)-2,2′-bipyrimidine] |  | 350
Fc1cc(C2CC2c2cnc(-c3ncccn3)nc2)cc(N2CCCC2)c1Cl (single isomer, unassigned) [Example 90, trans-5-(2-(4-Chloro-3-fluoro-5-(pyrrolidin-1-yl)phenyl)cyclopropyl)-2,2′-bipyrimidine] | 28 | 
COc1c(Cl)ccc(C2CC2c2cnc(-c3ncccn3)nc2)c1Cl (single isomer, unassigned) [Example 133, trans-5-(2-(2,4-Dichloro-3-methoxyphenyl)cyclopropyl)-2,2′-bipyrimidine] |  | 130
COc1cc(C2CC2c2cnc(-c3ncccn3)nc2)c(F)cc1Cl (single isomer, unassigned) [Example 87, trans-5-(2-(4-Chloro-2-fluoro-5-methoxyphenyl)cyclopropyl)-2,2′-bipyrimidine] |  | 140
COc1cc(C2CC2c2cnc(-c3ncccn3)nc2)cc(F)c1F (single isomer, unassigned) [Example 85, trans-5-(2-(3,4-Difluoro-5-methoxyphenyl)cyclopropyl)-2,2′-bipyrimidine] |  | 29
COCCOc1ccc(C2CC2c2cnc(-c3ncccn3)nc2)cc1F (single isomer, unassigned) [Example 23, trans-5-(2-(3-Fluoro-4-(2-methoxyethoxy)phenyl)cyclopropyl)-2,2′-bipyrimidine] | 95 | 
COCCCn1cc2c([C@@H]3C[C@H]3c3cnc(-c4ncccn4)nc3)ccc(F)c2n1 (relative stereo) [Example 277, trans-4-(2-([2,2′-Bipyrimidin]-5-yl)cyclopropyl)-7-fluoro-2-(3-methoxypropyl)-2H-indazole] | 30 | 
COc1cc(C2CN(c3cc([C@@H]4C[C@H]4c4cnc(-c5ncccn5)nc4)cc(F)c3F)C2)cc(F)c1F (relative stereo) [Example 213, trans-5-(2-(3-(3-(3,4-Difluoro-5-methoxyphenyl)azetidin-1-yl)-4,5-difluorophenyl)cyclopropyl)-2,2′-bipyrimidine] | 73 | 
COc1ccc(C2CC2c2cnc(-c3ncccn3)nc2)cc1F (single isomer, unassigned) [Example 13, trans-5-(2-(3-Fluoro-4-methoxyphenyl)cyclopropyl)-2,2′-bipyrimidine] |  | 82
COCCCOc1cc(F)c(Cl)cc1C1CC1c1cnc(-c2ncccn2)nc1 (single isomer, unassigned) [Example 154, trans-5-(2-(5-Chloro-4-fluoro-2-(3-methoxypropoxy)phenyl)cyclopropyl)-2,2′-bipyrimidine] |  | 300
COc1cc(C2CC2c2cnc(-c3ncccn3)nc2)cc(Cl)c1F (single isomer, unassigned) [Example 148, trans-5-(2-(3-Chloro-4-fluoro-5-methoxyphenyl)cyclopropyl)-2,2′-bipyrimidine] |  | 1000
c1cnc(-c2ncc([C@@H]3C[C@H]3c3cccc4ncccc34)cn2)nc1 (relative stereo) [Example 171, trans-5-(2-([2,2′-Bipyrimidin]-5-yl)cyclopropyl)quinoline] | 380 | 
Fc1cc(C2CC2c2cnc(-c3ncccn3)nc2)cc(-n2ccnc2)c1F (single isomer, unassigned) [Example 182, trans-5-(2-(3,4-Difluoro-5-(1H-imidazol-1-yl)phenyl)cyclopropyl)-2,2′-bipyrimidine] |  | 64
Fc1cc(C2CC2c2cnc(-c3ncccn3)nc2)cc(NC2CCCC2)c1F (single isomer, unassigned) [Example 208, trans-5-(2-([2,2′-Bipyrimidin]-5-yl)cyclopropyl)-N-cyclopentyl-2,3-difluoroaniline] |  | 110
OC1CC2(C1)CN(c1cc([C@@H]3C[C@H]3c3cnc(-c4ncccn4)nc3)cc(F)c1F)C2 (relative stereo) [Example 238, trans-2-(5-(2-([2,2′-Bipyrimidin]-5-yl)cyclopropyl)-2,3-difluorophenyl)-2-azaspiro[3.3]heptan-6-ol] | 53 | 
COCc1cnn(-c2cc([C@@H]3C[C@H]3c3cnc(-c4ncccn4)nc3)cc(F)c2F)c1 (relative stereo) [Example 236, trans-5-(2-(3,4-Difluoro-5-(4-(methoxymethyl)-1H-pyrazol-1-yl)phenyl)cyclopropyl)-2,2′-bipyrimidine] | 78 | 
COCCCOc1cc(C2CC2c2cnc(-c3ncccn3)nc2)cc(F)c1F (single isomer, unassigned) [Example 131, trans-5-(2-(3,4-Difluoro-5-(3-methoxypropoxy)phenyl)cyclopropyl)-2,2′-bipyrimidine] |  | 15

SMILES | EC50 [1] [nM] | EC50 [2] [nM]
O[C@H]1CCN(c2cc(C3CC3c3cnc(-c4ncccn4)nc3)ccc2F)C1 (single isomer, unassigned) [Example 66] |  | 230
Fc1ccc(C2CC2c2cnc(-c3ncccn3)nc2)cc1N1CCC(F)(F)C1 (single isomer, unassigned) [Example 43, trans-5-(2-(3-(3,3-Difluoropyrrolidin-1-yl)-4-fluorophenyl)cyclopropyl)-2,2′-bipyrimidine] |  | 250
COc1c(Cl)ccc(C2CC2c2cnc(-c3ncccn3)nc2)c1F (single isomer, unassigned) [Example 56, trans-5-(2-(4-Chloro-2-fluoro-3-methoxyphenyl)cyclopropyl)-2,2′-bipyrimidine] |  | 470
Cc1cc(C2CC2c2cnc(-c3ncccn3)nc2)cc(OCC2CC2)c1Cl (single isomer, unassigned) [Example 50, trans-5-((2-(4-Chloro-3-(cyclopropylmethoxy)-5-methylphenyl)cyclopropyl)-2,2′-bipyrimidine] |  | 2000
CN(C)c1cc(C2CC2c2cnc(-c3ncccn3)nc2)ccc1F (single isomer, unassigned) [Example 64, trans-5-(2-([2,2′-Bipyrimidin]-5-yl)cyclopropyl)-2-fluoro-N,N-dimethylaniline] |  | 3000
CN1CCN(c2cc(C3CC3c3cnc(-c4ncccn4)nc3)ccc2F)CC1 (single isomer, unassigned) [Example 187, trans-5-(2-(4-Fluoro-3-(4-methylpiperazin-1-yl)phenyl)cyclopropyl)-2,2′-bipyrimidine] |  | 15000
Fc1cc(C2CC2c2cnc(-c3ncccn3)nc2)cc(N2CC(c3ccccc3)C2)c1F (single isomer, unassigned) [Example 255, trans-5-(2-(3,4-Difluoro-5-(3-phenylazetidin-1-yl)phenyl)cyclopropyl)-2,2′-bipyrimidine] |  | 780
CN(c1cc([C@@H]2C[C@H]2c2cnc(-c3ncccn3)nc2)cc(F)c1F)C1COC1 (relative stereo) [Example 233, trans-N-(5-(2-([2,2′-Bipyrimidin]-5-yl)cyclopropyl)-2,3-difluorophenyl)-N-methyloxetan-3-amine] | 84 | 
Fc1ccc(C2CC2c2cnc(-c3ncccn3)nc2)cc1OC(F)F (single isomer, unassigned) [Example 185, trans-5-(2-(3-(Difluoromethoxy)-4-fluorophenyl)cyclopropyl)-2,2′-bipyrimidine] |  | 120
COc1c(Cl)ccc(C2CC2c2cnc(-c3ncccn3)nc2)c1OC (single isomer, unassigned) [Example 115, trans-5-(2-(4-Chloro-2,3-dimethoxyphenyl)cyclopropyl)-2,2′-bipyrimidine] |  | 320
COc1cc(C2CC2c2cnc(-c3ncccn3)nc2)cc(C)c1F (single isomer, unassigned) [Example 151, trans-5-(2-(4-Fluoro-3-methoxy-5-methylphenyl)cyclopropyl)-2,2′-bipyrimidine] |  | 81
Fc1ccc([C@@H]2C[C@H]2c2cnc(-c3ncccn3)nc2)c2ccccc12 (relative stereo) [Example 168, trans-5-(2-(4-Fluoronaphthalen-1-yl)cyclopropyl)-2,2′-bipyrimidine] | 36 | 
Fc1ccc(C2CC2c2cnc(-c3ncccn3)nc2)cc1OC(F)F (single isomer, unassigned) [Example 186, trans-5-(2-(3-(Difluoromethoxy)-4-fluorophenyl)cyclopropyl)-2,2′-bipyrimidine] |  | 1600
Cc1cn(-c2cc(C3CC3c3cnc(-c4ncccn4)nc3)cc(F)c2F)cn1 (single isomer, unassigned) [Example 262, trans-5-(2-(3,4-Difluoro-5-(4-methyl-1H-imidazol-1-yl)phenyl)cyclopropyl)-2,2′-bipyrimidine] |  | 47
Fc1ccc(C2CC2c2cnc(-c3ncccn3)nc2)cc1OCC(F)F (single isomer, unassigned) [Example 27, trans-5-(2-(3-(2,2-Difluoroethoxy)-4-fluorophenyl)cyclopropyl)-2,2′-bipyrimidine] |  | 630
Fc1cc([C@@H]2C[C@H]2c2cnc(-c3ncccn3)nc2)cc(OCCCN2CCOCC2)c1F (relative stereo) [Example 240, trans-4-(3-(5-(2-([2,2′-Bipyrimidin]-5-yl)cyclopropyl)-2,3-difluorophenoxy)propyl)morpholine] | 210 | 
Fc1cn(-c2cc(C3CC3c3cnc(-c4ncccn4)nc3)cc(F)c2F)cc1F (single isomer, unassigned) [Example 258, trans-5-(2-(3-(3,4-Difluoro-1H-pyrrol-1-yl)-4,5-difluorophenyl)cyclopropyl)-2,2′-bipyrimidine] |  | 14
CN1CC[C@H](Nc2cc(C3CC3c3cnc(-c4ncccn4)nc3)cc(F)c2F)C1 (single isomer, unassigned) [Example 228] |  | 15000
